Data as given in US6479435B1, “Diaryl ethers and processes for their preparation and herbicidal and desiccant compositions containing them” (ISK Americas Incorporated, priority 1997, dated 2002).

Tests used:
Format in all cases: in vivo
[1] = system: Johnsongrass (Sorghum halepense, SORHA); assay: Pre-emerge greenhouse herbicide test, phytotoxicity rating; conditions: 14 days after application, rating scale 0-100
How it was run: (§1)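 Visual 0–100 injury rating (100 = all plants dead) taken 14 days after treatment. Rates of 125–1000 g ai/ha in acetone, 187 l/ha, were sprayed onto soil one day post-sowing; pots were surface-watered to incorporate, then bottom-watered.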

[2] = system: barnyardgrass (Echinochloa crusgalli, ECHCG); assay: as above; conditions: 14 days after application, rating scale 0-100
How it was run: as §1

[3] = system: common ragweed (Ambrosia artemisiifolia L., AMBEL); assay: as above; conditions: 14 days after application, rating scale 0-100
How it was run: as §1

[4] = system: green foxtail (Setaria viridis, SETVI); assay: as above; conditions: 14 days after application, rating scale 0-100
How it was run: as §1

[5] = system: ivyleaf morningglory (Ipomoea hederacea, IPOHE); assay: as above; conditions: 14 days after application, rating scale 0-100
How it was run: as §1

[6] = system: lambsquarters (Chenopodium album, CHEAL); assay: as above; conditions: 14 days after application, rating scale 0-100
How it was run: as §1

[7] = system: large crabgrass (Digitaria sanguinalis, DIGSA); assay: as above; conditions: 14 days after application, rating scale 0-100
How it was run: as §1

[8] = system: redroot pigweed (Amaranthus retroflexus, AMARE); assay: as above; conditions: 14 days after application, rating scale 0-100
How it was run: as §1

[9] = system: sicklepod (Cassia obtusifolia, CASOB); assay: as above; conditions: 14 days after application, rating scale 0-100
How it was run: as §1

[10] = system: velvetleaf (Abutilon theophrasti, ABUTH); assay: as above; conditions: 14 days after application, rating scale 0-100
How it was run: as §1

[11] = system: field corn (Zea mays L., var. Dekalb 535, CORN); assay: Pre-emerge greenhouse test, crop damage rating; conditions: 14 days after application, rating scale 0-100
How it was run: as §1

[12] = system: upland rice (Oryza sp., var.Tebonnet, RICE); assay: Pre-emerge greenhouse test, crop damage rating; conditions: 14 days after application, rating scale 0-100
How it was run: as §1

[13] = system: soybean (Glycine max L., var. Pella 86, SOY); assay: Pre-emerge greenhouse test, crop damage rating; conditions: 14 days after application, rating scale 0-100
How it was run: as §1

[14] = system: common ragweed (Ambrosia artemisiifolia L., AMBEL); assay: Post-emerge greenhouse herbicide test, phytotoxicity rating; conditions: 14 days after application
How it was run: (§2)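 Scores use a 0 (no damage) to 100 (complete kill) scale, taken 14 days after a foliar spray. Acetone solutions with 0.25% v/v non-ionic surfactant were applied by track sprayer at 187 l/ha and 63-1000 g ai/ha to bottom-watered 2-3 leaf plants.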

[15] = system: Johnsongrass (Sorghum halepense, SORHA); assay: as above; conditions: 14 days after application
How it was run: as §2

[16] = system: barnyardgrass (Echinochloa crusgalli, ECHCG); assay: as above; conditions: 14 days after application
How it was run: as §2

[17] = system: green foxtail (Setaria viridis, SETVI); assay: as above; conditions: 14 days after application
How it was run: as §2

[18] = system: ivyleaf morningglory (Ipomoea hederacea, IPOHE); assay: as above; conditions: 14 days after application
How it was run: as §2

[19] = system: lambsquarters (Chenopodium album, CHEAL); assay: as above; conditions: 14 days after application
How it was run: as §2

[20] = system: large crabgrass (Digitaria sanguinalis, DIGSA); assay: as above; conditions: 14 days after application
How it was run: as §2

[21] = system: redroot pigweed (Amaranthus retroflexus, AMARE); assay: as above; conditions: 14 days after application
How it was run: as §2

[22] = system: sicklepod (Cassia obtusifolia, CASOB); assay: as above; conditions: 14 days after application
How it was run: as §2

[23] = system: velvetleaf (Abutilon theophrasti, ABUTH); assay: as above; conditions: 14 days after application
How it was run: as §2

[24] = system: field corn (Zea mays L., var. Dekalb 535, CORN); assay: Post-emerge greenhouse test, crop damage rating; conditions: 14 days after application
How it was run: as §2

[25] = system: upland rice (Oryza sp., var.Tebonnet, RICE); assay: Post-emerge greenhouse test, crop damage rating; conditions: 14 days after application
How it was run: as §2

[26] = system: soybean (Glycine max L., var. Pella 86, SOY); assay: Post-emerge greenhouse test, crop damage rating; conditions: 14 days after application
How it was run: as §2

O=c1n(-c2cc(Oc3ccc([N+](=O)[O-])cc3)c(Cl)cc2F)c(=S)n2n1CCCC2 [Compound 8-8]
30: phytotoxicity rating SORHA ([1]; 125 g ai/ha) | phytotoxicity rating SORHA ([1]; 500 g ai/ha) | AMBEL phytotoxicity rating (0-100) ([14]; 63 g al/ha) | SETVI phytotoxicity rating (0-100) ([17]; 500 g al/ha)
75: SOY crop damage rating (0-100) ([26]; 500 g al/ha)
80: phytotoxicity rating CASOB ([9]; 500 g ai/ha)
50: IPOHE phytotoxicity rating (0-100) ([18]; 500 g al/ha)
99: CHEAL phytotoxicity rating (0-100) ([19]; 63 g al/ha)
40: phytotoxicity rating DIGSA ([7]; 125 g ai/ha) | phytotoxicity rating DIGSA ([7]; 500 g ai/ha) | AMBEL phytotoxicity rating (0-100) ([14]; 500 g al/ha) | CASOB phytotoxicity rating (0-100) ([22]; 63 g al/ha) | CASOB phytotoxicity rating (0-100) ([22]; 500 g al/ha)
100: phytotoxicity rating AMARE ([8]; 125 g ai/ha) | phytotoxicity rating AMARE ([8]; 500 g ai/ha) | phytotoxicity rating ABUTH ([10]; 500 g ai/ha) | CHEAL phytotoxicity rating (0-100) ([19]; 500 g al/ha) | AMARE phytotoxicity rating (0-100) ([21]; 500 g al/ha) | ABUTH phytotoxicity rating (0-100) ([23]; 500 g al/ha)
60: phytotoxicity rating SETVI ([4]; 125 g ai/ha)
95: phytotoxicity rating SETVI ([4]; 500 g ai/ha) | AMARE phytotoxicity rating (0-100) ([21]; 63 g al/ha) | ABUTH phytotoxicity rating (0-100) ([23]; 63 g al/ha)
0: phytotoxicity rating ECHCG ([2]; 125 g ai/ha) | phytotoxicity rating AMBEL ([3]; 125 g ai/ha) | phytotoxicity rating IPOHE ([5]; 125 g ai/ha) | phytotoxicity rating CHEAL ([6]; 125 g ai/ha) | phytotoxicity rating CASOB ([9]; 125 g ai/ha) | crop damage rating CORN ([11]; 500 g ai/ha) | crop damage rating RICE ([12]; 125 g ai/ha) | crop damage rating RICE ([12]; 500 g ai/ha) | crop damage rating SOY ([13]; 125 g ai/ha) | SORHA phytotoxicity rating (0-100) ([15]; 500 g al/ha) | ECHCG phytotoxicity rating (0-100) ([16]; 500 g al/ha) | DIGSA phytotoxicity rating (0-100) ([20]; 63 g al/ha) | DIGSA phytotoxicity rating (0-100) ([20]; 500 g al/ha) | RICE crop damage rating (0-100) ([25]; 63 g al/ha)
10: phytotoxicity rating IPOHE ([5]; 500 g ai/ha) | phytotoxicity rating CHEAL ([6]; 500 g ai/ha) | SORHA phytotoxicity rating (0-100) ([15]; 63 g al/ha) | ECHCG phytotoxicity rating (0-100) ([16]; 63 g al/ha) | CORN crop damage rating (0-100) ([24]; 63 g al/ha) | CORN crop damage rating (0-100) ([24]; 500 g al/ha) | RICE crop damage rating (0-100) ([25]; 500 g al/ha)
5: crop damage rating CORN ([11]; 125 g ai/ha)
20: phytotoxicity rating ECHCG ([2]; 500 g ai/ha) | phytotoxicity rating AMBEL ([3]; 500 g ai/ha) | crop damage rating SOY ([13]; 500 g ai/ha) | SETVI phytotoxicity rating (0-100) ([17]; 63 g al/ha)
25: SOY crop damage rating (0-100) ([26]; 63 g al/ha)
90: phytotoxicity rating ABUTH ([10]; 125 g ai/ha) | IPOHE phytotoxicity rating (0-100) ([18]; 63 g al/ha)

O=c1sc(=Nc2cc(Oc3ncccn3)c(Cl)cc2F)n2n1CCCC2 [Compound 7-2]
70: crop damage rating CORN ([11]; 500 g ai/ha)
30: DIGSA phytotoxicity rating (0-100) ([20]; 63 g al/ha)
35: CORN crop damage rating (0-100) ([24]; 63 g al/ha)
0: crop damage rating SOY ([13]; 125 g ai/ha)
85: DIGSA phytotoxicity rating (0-100) ([20]; 500 g al/ha)
90: crop damage rating RICE ([12]; 125 g ai/ha) | SETVI phytotoxicity rating (0-100) ([17]; 63 g al/ha) | CORN crop damage rating (0-100) ([24]; 500 g al/ha)
40: ECHCG phytotoxicity rating (0-100) ([16]; 63 g al/ha)
95: phytotoxicity rating SORHA ([1]; 125 g ai/ha) | ECHCG phytotoxicity rating (0-100) ([16]; 500 g al/ha) | RICE crop damage rating (0-100) ([25]; 500 g al/ha) | SOY crop damage rating (0-100) ([26]; 63 g al/ha)
45: crop damage rating CORN ([11]; 125 g ai/ha)
100: phytotoxicity rating SORHA ([1]; 500 g ai/ha) | phytotoxicity rating ECHCG ([2]; 500 g ai/ha) | phytotoxicity rating AMBEL ([3]; 125 g ai/ha) | phytotoxicity rating AMBEL ([3]; 500 g ai/ha) | phytotoxicity rating SETVI ([4]; 125 g ai/ha) | phytotoxicity rating SETVI ([4]; 500 g ai/ha) | phytotoxicity rating IPOHE ([5]; 125 g ai/ha) | phytotoxicity rating IPOHE ([5]; 500 g ai/ha) | phytotoxicity rating CHEAL ([6]; 125 g ai/ha) | phytotoxicity rating CHEAL ([6]; 500 g ai/ha) | phytotoxicity rating DIGSA ([7]; 125 g ai/ha) | phytotoxicity rating DIGSA ([7]; 500 g ai/ha) | phytotoxicity rating AMARE ([8]; 125 g ai/ha) | phytotoxicity rating AMARE ([8]; 500 g ai/ha) | phytotoxicity rating CASOB ([9]; 500 g ai/ha) | phytotoxicity rating ABUTH ([10]; 125 g ai/ha) | phytotoxicity rating ABUTH ([10]; 500 g ai/ha) | crop damage rating RICE ([12]; 500 g ai/ha) | AMBEL phytotoxicity rating (0-100) ([14]; 63 g al/ha) | AMBEL phytotoxicity rating (0-100) ([14]; 500 g al/ha) | SORHA phytotoxicity rating (0-100) ([15]; 500 g al/ha) | SETVI phytotoxicity rating (0-100) ([17]; 500 g al/ha) | IPOHE phytotoxicity rating (0-100) ([18]; 63 g al/ha) | IPOHE phytotoxicity rating (0-100) ([18]; 500 g al/ha) | CHEAL phytotoxicity rating (0-100) ([19]; 63 g al/ha) | CHEAL phytotoxicity rating (0-100) ([19]; 500 g al/ha) | AMARE phytotoxicity rating (0-100) ([21]; 63 g al/ha) | AMARE phytotoxicity rating (0-100) ([21]; 500 g al/ha) | CASOB phytotoxicity rating (0-100) ([22]; 63 g al/ha) | CASOB phytotoxicity rating (0-100) ([22]; 500 g al/ha) | ABUTH phytotoxicity rating (0-100) ([23]; 63 g al/ha) | ABUTH phytotoxicity rating (0-100) ([23]; 500 g al/ha) | SOY crop damage rating (0-100) ([26]; 500 g al/ha)
99: phytotoxicity rating ECHCG ([2]; 125 g ai/ha)
80: crop damage rating SOY ([13]; 500 g ai/ha) | RICE crop damage rating (0-100) ([25]; 63 g al/ha)
60: phytotoxicity rating CASOB ([9]; 125 g ai/ha) | SORHA phytotoxicity rating (0-100) ([15]; 63 g al/ha)
